Data published in the supplement of paper PMC10307832.

Assays:
Assay in all cases: relative viability (nuclei count vs DMSO), 5 days (fraction); higher = more cells survive
[1] = compound: CN(C)CC1=CC(=CC=C1)N=C(C2=CC=CC=C2)C3=C(NC4=C3C=CC(=C4)C(=O)N(C)C)O + COc1cccc2cc(-c3nc([C@H]4CC[C@H](C(=O)O)CC4)n4ncnc(N)c34)[nH]c12 [OSI-027] (partner 0.5 µM)
Summary of the method: (§1)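 Lung cancer cell lines, seeded in 1536-well plates, were treated the following day by pin tool with a single drug or with five library-drug doses (not always all listed) in √10 steps on top of a fixed anchor-drug dose. Cells were fixed and nuclei stained in one step after 5 days, and nuclei were counted. Relative viability is the nuclei count for treated wells divided by that for vehicle wells, reported as medians of duplicate plates.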

[2] = compound: CN(C)CC1=CC(=CC=C1)N=C(C2=CC=CC=C2)C3=C(NC4=C3C=CC(=C4)C(=O)N(C)C)O + CC(=O)Nc1cccc(-n2c(=O)n(C3CC3)c(=O)c3c(Nc4ccc(I)cc4F)n(C)c(=O)c(C)c32)c1 [Trametinib] (partner 0.02 µM)
Summary of the method: as §1

[3] = compound: CN(C)CC1=CC(=CC=C1)N=C(C2=CC=CC=C2)C3=C(NC4=C3C=CC(=C4)C(=O)N(C)C)O + N=C(N)NC(=N)NCCc1ccccc1 [Phenformin] (partner 250 µM)
Summary of the method: as §1

[4] = compound: CN(C)CC1=CC(=CC=C1)N=C(C2=CC=CC=C2)C3=C(NC4=C3C=CC(=C4)C(=O)N(C)C)O + C[C@@H](Oc1cc(-c2cnn(C3CCNCC3)c2)cnc1N)c1c(Cl)ccc(F)c1Cl [Crizotinib] (partner 1 µM)
Summary of the method: as §1

Cell Line	relative viability ([1]; first compound 0.08 µM)	relative viability ([1]; first compound 0.253 µM)	relative viability ([1]; first compound 0.8 µM)	relative viability ([1]; first compound 2.53 µM)	relative viability ([1]; first compound 8 µM)	relative viability ([2]; first compound 0.08 µM)	relative viability ([2]; first compound 0.253 µM)	relative viability ([2]; first compound 0.8 µM)	relative viability ([2]; first compound 2.53 µM)	relative viability ([2]; first compound 8 µM)	relative viability ([3]; first compound 0.08 µM)	relative viability ([3]; first compound 0.253 µM)	relative viability ([3]; first compound 0.8 µM)	relative viability ([3]; first compound 2.53 µM)	relative viability ([3]; first compound 8 µM)	relative viability ([4]; first compound 0.08 µM)	relative viability ([4]; first compound 0.253 µM)	relative viability ([4]; first compound 0.8 µM)	relative viability ([4]; first compound 2.53 µM)	relative viability ([4]; first compound 8 µM)
NCI-H1666	0.858	0.851	0.889	0.831	1.05	0.966	0.879	0.73	0.85	0.928	0.569	0.579	0.615	0.58	0.585	1.24	1.04	0.933	1.14	1.13
NCI-H1734	0.599	0.6	0.56	0.561	0.577	0.625	0.701	0.735	0.698	0.579	0.354	0.408	0.385	0.376	0.368	0.7	0.651	0.597	0.667	0.557
NCI-H1755	0.707	0.7	0.798	0.773	0.622	0.844	0.709	0.708	0.779	0.736	0.577	0.58	0.601	0.549	0.566	0.792	0.897	0.789	0.758	0.825
NCI-H1792	0.77	0.729	0.709	0.721	0.58	0.473	0.371	0.485	0.501	0.425	0.255	0.211	0.357	0.179	0.231	0.68	0.97	0.954	0.786	0.915
NCI-H1915	0.635	0.643	0.71	0.659	0.575	0.298	0.278	0.32	0.289	0.265	0.368	0.35	0.383	0.361	0.352	0.886	0.885	0.989	0.832	0.848
NCI-H1944	0.447	0.491	0.4	0.355	0.348	0.44	0.4	0.337	0.464	0.373	0.2	0.217	0.183	0.177	0.187	1.06	1.04	1.06	1.08	1.11
NCI-H1975	0.747	0.0592	0.675	0.747	0.585	0.368	0.323	0.304	0.298	0.238	0.378	0.407	0.357	0.393	0.36	0.969	1.07	0.842	0.859	0.822
NCI-H1993	0.529	0.581	0.567	0.531	0.598	0.464	0.513		0.53	0.592	0.504	0.498	0.586	0.507	0.493	0.761	0.845	0.628	0.89	0.876
